How the values were obtained:
[1] = system: BS125 cells; experiment: MTT-based cell proliferation assay, BS125 cells; parameters: species or system human; details: 10 μM CGP57380 with increasing amounts of rapamycin, 5 days after treatment
Method: (§1) Cell proliferation was assayed using MTT-based method 5 days after treatment. Growth in untreated cells was used as a reference. Data shown are the mean±SD values of at least three separate experiments.
(§2) Human brain tumor cell lines; BS125 and LN319 were derived from human patients. The “BS” series were generated at the University of Basel, Switzerland while the “LN” series was generated in Lausanne, Switzerland (Ishii et al., […], Brain Pathol. 9:469-79). These cells were cultured in DMEM supplemented with 10% FCS and standard antibiotics in an incubator at 37° C. and 5% CO2 humidified atmosphere. Transfection was accomplished using Lipofectamine (Invitrogen) according to the supplier's instructions. For overexpression experiments, previously reported MNK1-Flag construct (Knauf et al., 2001, Mol Cell Biol. 21:5500-11) were used. […]
(§3) For cell proliferation MTT-based assays in 96-well plates, about ˜5000 cells were seeded 1 day before drug treatment. […] The number of viable cells was measured using CellTiter 96® AQueous Non-Radioactive Cell Proliferation Assay (Promega) used according to manufacturer's instruction. In addition, cell growth was also monitored by counting cell number with a Vi-Cell XR cell viability analyzer (Beckman Coulter). […] Cells were counted every day over a 5-day period.

[2] = system: phosphorylated eIF4E; details: cells transfected with Mnk2 (Mnk2a or Mnk2b) or Mnk1; cited from earlier work
[3] = system: LN319 cells; experiment: MTT-based cell proliferation assay, LN319 cells; parameters: species or system human; details: 10 μM CGP57380 with increasing amounts of rapamycin, 5 days after treatment
Method: as §1, §2, §3

[4] = molecular target: human Mnk2 protein (Homo sapiens, UniProt Q9HBH9); details: described in WO 02/103361; cited from earlier work
Chain of human Mnk2 protein (Q9HBH9 whole entry): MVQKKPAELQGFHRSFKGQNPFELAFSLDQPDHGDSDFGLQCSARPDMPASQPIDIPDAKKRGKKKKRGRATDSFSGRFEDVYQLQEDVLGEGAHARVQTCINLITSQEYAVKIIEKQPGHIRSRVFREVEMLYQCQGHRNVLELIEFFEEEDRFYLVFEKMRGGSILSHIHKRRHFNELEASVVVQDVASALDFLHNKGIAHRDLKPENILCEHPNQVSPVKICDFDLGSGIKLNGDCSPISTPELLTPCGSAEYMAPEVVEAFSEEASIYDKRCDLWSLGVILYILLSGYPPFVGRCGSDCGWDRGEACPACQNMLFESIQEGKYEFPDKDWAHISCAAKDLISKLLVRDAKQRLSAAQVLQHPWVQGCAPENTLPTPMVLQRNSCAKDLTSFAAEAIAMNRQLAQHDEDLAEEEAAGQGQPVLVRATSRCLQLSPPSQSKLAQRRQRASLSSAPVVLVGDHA

SMILES	inhibitory effect on cell proliferation [1]	reduction of phosphorylated eIF4E [2]	inhibitory effect on cell proliferation [3]	binding to human Mnk2 protein [4]
Nc1ncnc2n[nH]c(Nc3ccc(F)cc3)c12 [CGP57380]	significantly increases the inhibitory effect on cell proliferation	strong reduction of phosphorylated eIF4E	significantly increases the inhibitory effect on cell proliferation	
COC(=O)c1ccc(O)cc1 [4-hydroxybenzoic acid methyl ester]				binds the human Mnk2 protein

Source: US20110280886A1, “TREATING CANCER BY MODULATING MNK” (UNIVERSITY HOSPITAL BASEL, priority 2008, published 2011)
